Here are results for nine compounds from ChEMBL document CHEMBL1629585, “Nationwide survey of CTX-M-type extended-spectrum beta-lactamases among Klebsiella pneumoniae isolates in Slovenian hospitals” (2009).

For experiment [1], the system named is Klebsiella pneumoniae. Description: Antibacterial activity against Klebsiella pneumoniae expressing CTX-M group 1 beta-lactamase by Etest method. It is filed as functional.
For experiment [2], the system named is Klebsiella pneumoniae. Description: Antibacterial activity against Klebsiella pneumoniae D expressing CTX-M group 1 beta-lactamase by Etest method. It is filed as functional.
In experiment [3] the test system is Klebsiella pneumoniae. Description: Antibacterial activity against Klebsiella pneumoniae B expressing CTX-M group 1 beta-lactamase by Etest method. It is filed as functional.
In experiment [4] the test system is Klebsiella pneumoniae. Description: Antibacterial activity against Klebsiella pneumoniae C expressing CTX-M group 1 beta-lactamase by Etest method. It is filed as functional.
In experiment [5] the test system is Klebsiella pneumoniae. Description: Antibacterial activity against Klebsiella pneumoniae A expressing CTX-M group 1 beta-lactamase by Etest method. The class given is functional.
In experiment [6] the test system is Escherichia coli. Description: Antibacterial activity against Escherichia coli TrC C expressing Klebsiella pneumoniae C blaCTX-M beta-lactamase by Etest method. The class given is functional.
Experiment [7] relates to Escherichia coli. Description: Antibacterial activity against Escherichia coli TrC B expressing Klebsiella pneumoniae B blaCTX-M beta-lactamase by Etest method. The class given is functional.
Experiment [8] deals with Escherichia coli. Description: Antibacterial activity against Escherichia coli TrC A expressing Klebsiella pneumoniae A blaCTX-M beta-lactamase by Etest method. The class given is functional.
Experiment [9] concerns Escherichia coli. Description: Antibacterial activity against rifampicin resistant Escherichia coli J53-2 by Etest method.
Experiment [10] has as its system Klebsiella pneumoniae. Description: Antibacterial activity against Klebsiella pneumoniae expressing CTX-M group 1 beta-lactamase by Etest method in presence of Tazobactam. It is filed as functional.
Experiment [11] deals with Klebsiella pneumoniae. Description: Antibacterial activity against Klebsiella pneumoniae D expressing CTX-M group 1 beta-lactamase by Etest method in presence of Tazobactam. The class given is functional.
Experiment [12] has as its system Klebsiella pneumoniae. Description: Antibacterial activity against Klebsiella pneumoniae C expressing CTX-M group 1 beta-lactamase by Etest method in presence of Tazobactam. The class given is functional.
Experiment [13] has as its system Klebsiella pneumoniae. Description: Antibacterial activity against Klebsiella pneumoniae B expressing CTX-M group 1 beta-lactamase by Etest method in presence of Tazobactam. The class given is functional.
In experiment [14] the test system is Klebsiella pneumoniae. Description: Antibacterial activity against Klebsiella pneumoniae A expressing CTX-M group 1 beta-lactamase by Etest method in presence of Tazobactam. It is filed as functional.

Converted amounts (≈) assume the structure as drawn.

The term MIC denotes the smallest concentration in the dilution series that meets the test's criterion for growth inhibition. As usually defined, the MIC50 is an inhibitory concentration at the 50% level, which refers to growth in some studies and to a panel of isolates in others. As usually defined, the MIC90 is the lowest concentration that inhibits either 90% of growth or 90% of the strains tested, depending on the study. Take `O=C(O)c1cn(C2CC2)c2cc(N3CCNCC3)c(F)cc2c1=O` [CIPROFLOXACIN]: the MIC is 0.032 µg/mL (≈ 0.0966 µM) in experiment [1]; 0.38 µg/mL (≈ 1.15 µM) in [5]; no more than 0.125 µg/mL in experiment [6]; no more than 0.125 µg/mL in experiment [7]; no more than 0.125 µg/mL in experiment [8]; no more than 0.125 µg/mL in experiment [9]. The MIC50 in experiment [1] was 16 µg/mL (≈ 48.3 µM); in experiment [2], greater than 32 µg/mL; in [3] it was greater than 32 µg/mL; in experiment [4], greater than 32 µg/mL; in experiment [5], 1 µg/mL (≈ 3.02 µM). In addition, the MIC90 in [1] was greater than 32 µg/mL; in experiment [2] it was greater than 32 µg/mL; in [3], greater than 32 µg/mL; in [4] it was greater than 32 µg/mL; in experiment [5], 6 µg/mL (≈ 18.1 µM).

Consider `CO/N=C(\C(=O)N[C@@H]1C(=O)N2C(C(=O)[O-])=C(C[N+]3(C)CCCC3)CS[C@H]12)c1csc(N)n1`, for which, in experiment [2], the lowest concentration to inhibit growth (MIC) was 32 µg/mL (≈ 66.6 µM) and the MIC90 was greater than 256 µg/mL. Further, in [3], the MIC was found to be 16 µg/mL (≈ 33.3 µM), the MIC50 was determined as 16 µg/mL (≈ 33.3 µM) and the MIC90 turned out to be 48 µg/mL (≈ 99.9 µM).

As to `CC1(C)S[C@@H]2[C@H](NC(=O)[C@H](N)c3ccc(O)cc3)C(=O)N2[C@H]1C(=O)O` [AMOXICILLIN], the MIC was found to be 8 µg/mL (≈ 21.9 µM) in experiment [1]; 6 µg/mL (≈ 16.4 µM) in experiment [2]; 12 µg/mL (≈ 32.8 µM) in experiment [3]; 6 µg/mL (≈ 16.4 µM) in [4]; 4 µg/mL (≈ 10.9 µM) in experiment [5]. Further, the MIC50 was 16 µg/mL (≈ 43.8 µM) in experiment [1]; 16 µg/mL (≈ 43.8 µM) in [2]; 16 µg/mL (≈ 43.8 µM) in [3]; 16 µg/mL (≈ 43.8 µM) in [4]; 8 µg/mL (≈ 21.9 µM) in experiment [5]. Moreover, the MIC90 was greater than 256 µg/mL in experiment [1]; 16 µg/mL (≈ 43.8 µM) in experiment [2]; 16 µg/mL (≈ 43.8 µM) in experiment [3]; 64 µg/mL (≈ 175 µM) in experiment [4]; 8 µg/mL (≈ 21.9 µM) in experiment [5].

Take GENTAMICIN: the results for the MIC50 in experiment [1] and in [4] were 64 µg/mL and 128 µg/mL, respectively. Also, the MIC90 in experiment [1] and in experiment [4] was greater than 256 µg/mL in each case. Further, the MIC in experiment [6] turned out to be 16 µg/mL; in [7], 32 µg/mL; in experiment [8], 4 µg/mL.

Turning to `C[C@@H](O)[C@H]1C(=O)N2C(C(=O)O)=C(SCCNC=N)C[C@H]12` [IMIPENEM ANHYDROUS], the minimal inhibitory concentration (MIC) in [1] was 0.19 µg/mL (≈ 0.635 µM); in [2], 0.19 µg/mL (≈ 0.635 µM); in [3] it was 0.125 µg/mL (≈ 0.418 µM); in experiment [4] it was 0.19 µg/mL (≈ 0.635 µM); in experiment [5], 0.19 µg/mL (≈ 0.635 µM). The MIC50 in experiment [1] is 0.25 µg/mL (≈ 0.835 µM); in [2] it was 0.25 µg/mL (≈ 0.835 µM); in [3], 0.19 µg/mL (≈ 0.635 µM); in [4], 0.19 µg/mL (≈ 0.635 µM); in [5], 0.25 µg/mL (≈ 0.835 µM). Besides, the MIC90 in experiment [1] worked out at 0.5 µg/mL (≈ 1.67 µM); in [2] it was 0.25 µg/mL (≈ 0.835 µM); in experiment [3] it was 0.19 µg/mL (≈ 0.635 µM); in experiment [4], 0.38 µg/mL (≈ 1.27 µM); in experiment [5], 0.38 µg/mL (≈ 1.27 µM).

For the compound `CCN1CCN(C(=O)N[C@@H](C(=O)N[C@@H]2C(=O)N3[C@@H]2SC(C)(C)[C@@H]3C(=O)O)c2ccccc2)C(=O)C1=O` [PIPERACILLIN], the MIC in experiment [6] is greater than 64 µg/mL; in [7], greater than 64 µg/mL; in experiment [8] it was greater than 64 µg/mL; in [9], 4 µg/mL (≈ 7.73 µM); in experiment [10], 3 µg/mL; in experiment [11] it was 4 µg/mL. The figures for the MIC in experiment [12], in [13] and in [14] were 3 µg/mL, 32 µg/mL and 2 µg/mL, respectively. Besides, the MIC50 in [10] was 12 µg/mL; in experiment [11] it was 12 µg/mL; in [12], greater than 256 µg/mL; in experiment [13] it was 64 µg/mL; in experiment [14], 3 µg/mL. In addition, the MIC90 is greater than 256 µg/mL in experiment [10]; 24 µg/mL in experiment [11]; greater than 256 µg/mL in experiment [12]; greater than 256 µg/mL in experiment [13]; 12 µg/mL in [14].

As for `NCC[C@H](O)C(=O)N[C@@H]1C[C@H](N)[C@@H](O[C@H]2O[C@H](CN)[C@@H](O)[C@H](O)[C@H]2O)[C@H](O)[C@H]1O[C@H]1O[C@H](CO)[C@@H](O)[C@H](N)[C@H]1O` [AMIKACIN], the minimal inhibitory concentration (MIC) was found to be 2 µg/mL (≈ 3.42 µM) in experiment [1]; 2 µg/mL (≈ 3.42 µM) in experiment [2]; 4 µg/mL (≈ 6.83 µM) in experiment [3]; 1.5 µg/mL (≈ 2.56 µM) in experiment [4]; 2 µg/mL (≈ 3.42 µM) in experiment [5]; 4 µg/mL (≈ 6.83 µM) in [6]. Also, the MIC came out at 4 µg/mL (≈ 6.83 µM) in experiment [7], 2 µg/mL (≈ 3.42 µM) in experiment [8] and 1 µg/mL (≈ 1.71 µM) in [9]. Moreover, the MIC50 in [1] amounted to 16 µg/mL (≈ 27.3 µM); in experiment [2] it was 6 µg/mL (≈ 10.2 µM); in [3], 6 µg/mL (≈ 10.2 µM); in experiment [4], 6 µg/mL (≈ 10.2 µM); in experiment [5] it was 48 µg/mL (≈ 82 µM). The MIC90 turned out to be 32 µg/mL (≈ 54.6 µM) in experiment [1]; 16 µg/mL (≈ 27.3 µM) in [2]; 12 µg/mL (≈ 20.5 µM) in experiment [3]; 16 µg/mL (≈ 27.3 µM) in experiment [4]; 96 µg/mL (≈ 164 µM) in [5].

On to `CO[C@@]1(NC(=O)Cc2cccs2)C(=O)N2C(C(=O)O)=C(COC(N)=O)CS[C@@H]21` [CEFOXITIN], for which the MIC in experiment [1] came out at 1.5 µg/mL (≈ 3.51 µM); in experiment [2], 3 µg/mL (≈ 7.02 µM); in experiment [3], 8 µg/mL (≈ 18.7 µM); in experiment [4] it was 8 µg/mL (≈ 18.7 µM); in [5] it was 3 µg/mL (≈ 7.02 µM); in experiment [6], 8 µg/mL (≈ 18.7 µM). In addition, the results for the MIC in experiment [7], in experiment [8] and in experiment [9] were 8 µg/mL (≈ 18.7 µM), 16 µg/mL (≈ 37.4 µM) and 8 µg/mL (≈ 18.7 µM), respectively. In addition, the MIC50 in experiment [1] was determined as 3 µg/mL (≈ 7.02 µM); in experiment [2], 4 µg/mL (≈ 9.36 µM); in [3], 8 µg/mL (≈ 18.7 µM); in experiment [4], 12 µg/mL (≈ 28.1 µM); in [5] it was 4 µg/mL (≈ 9.36 µM). The MIC90 in experiment [1] came to 48 µg/mL (≈ 112 µM); in [2] it was 16 µg/mL (≈ 37.4 µM); in experiment [3], 16 µg/mL (≈ 37.4 µM); in [4], 48 µg/mL (≈ 112 µM); in experiment [5], 24 µg/mL (≈ 56.1 µM).

As to `NC[C@H]1O[C@H](O[C@H]2[C@H](O)[C@@H](O[C@H]3O[C@H](CO)[C@@H](O)[C@H](N)[C@H]3O)[C@H](N)C[C@@H]2N)[C@H](N)C[C@@H]1O` [TOBRAMYCIN], the MIC in [3] turned out to be 32 µg/mL (≈ 68.4 µM); in [4], 32 µg/mL (≈ 68.4 µM); in experiment [5], 32 µg/mL (≈ 68.4 µM); in experiment [6], 16 µg/mL (≈ 34.2 µM); in [7], 32 µg/mL (≈ 68.4 µM); in [8], 32 µg/mL (≈ 68.4 µM). In experiment [9], this compound registered an MIC of 1 µg/mL (≈ 2.14 µM).
